Earlier results in patent US20020099100A1, “Treatment of dry eye syndrome” (priority 2000, published 2002).

Tested on: dry eye syndrome
Settings: in vivo

Vitamin A
Underlying cellular changes that lead to dry eye syndrome: reverse many of the underlying cellular changes
